According to the supplement of paper PMC4862054:

Columns and labels:
CAL-120 [1] = details: 72 h
Procedure, shortened: (§1)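 To measure viability, fluorescence at 560/590 nm was read after 2.5 µl CellTiter-Blue had been added for 2 h at 37 °C. Cells from breast cancer lines had been seeded in 20 µl suspension onto 384-well plates pre-loaded with compound dissolved in 5 µl medium and kept for 72 h. EC50 comes from a fitted percent-inhibition dose-response curve censored at the highest concentration, after per-plate normalisation to vehicle and a positive kill control, Z'-factor checks, and removal of rows with zero drug sensitivity score.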

HCC1143 [2] = details: 72 h
Procedure, shortened: as §1

BT-549 [3] = details: 72 h
Procedure, shortened: (§2)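 Breast cancer cell lines in 20 µl suspension were added to 384-well plates already holding compound at 5 concentrations, spaced in 10-fold steps across a compound-specific 10,000-fold range, and incubated for 72 h. CellTox Green fluorescence (485/520 nm) was read first to measure cell death, followed by CellTiter-Glo luminescence for viability after 10 min at room temperature. Each plate was normalised to 0.1 % DMSO and a positive kill control. EC50 values came from dose-response curve fits and were censored at the top concentration.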

DU-4475 [4] = details: 72 h
Procedure, shortened: as §2

MDA-MB-436 [5] = details: 72 h
Procedure, shortened: as §2

Hs578T [6] = details: 72 h
Procedure, shortened: as §2

MDA-MB-468 [7] = details: 72 h
Procedure, shortened: as §2

MCF-10A = details: 72 h
Procedure, shortened: as §2

CAL-51 [8] = details: 72 h
Procedure, shortened: as §2

CAL-120 [9] = details: 72 h; remark: listed apart in the source
Procedure, shortened: as §2

SK-BR-3 [10] = details: 72 h
Procedure, shortened: as §2

MFM-223 [11] = details: 72 h
Procedure, shortened: as §2

MDA-MB-231 [12] = details: 72 h
Procedure, shortened: as §2

BT-474 [13] = details: 72 h
Procedure, shortened: as §2

HCC1143 [14] = details: 72 h; remark: listed apart in the source
Procedure, shortened: as §2

BT-549 [15] = assay: normalised viability (% of control), CellTiter-Blue; higher = more viable cells (100 = DMSO, 0 = benzethonium chloride kill control); details: incubation time: 72 h
Protocol: (§3)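 DSRT, CellTiter-Blue viability, 72 h incubation. Signal is normalised to DMSO and benzethonium chloride controls. Value is the normalised response at dose 1.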

DU-4475 [16] = assay: as above; details: incubation time: 72 h
Protocol: as §3

MDA-MB-436 [17] = assay: as above; details: incubation time: 72 h
Protocol: as §3

Hs578T [18] = assay: as above; details: incubation time: 72 h
Protocol: as §3

MDA-MB-468 [19] = assay: as above; details: incubation time: 72 h
Protocol: as §3

MDA-MB-453 = assay: as above; details: incubation time: 72 h
Protocol: as §3

CAL-85-1 = assay: as above; details: incubation time: 72 h
Protocol: as §3

CAL-51 [20] = assay: as above; details: incubation time: 72 h
Protocol: as §3

CAL-120 [21] = assay: as above; details: incubation time: 72 h
Protocol: as §3

HCC1599 = assay: as above; details: incubation time: 72 h
Protocol: as §3

SK-BR-3 [22] = assay: as above; details: incubation time: 72 h
Protocol: as §3

HCC1937 = assay: as above; details: incubation time: 72 h
Protocol: as §3

HDQ-P1 = assay: as above; details: incubation time: 72 h
Protocol: as §3

CAL-148 = assay: as above; details: incubation time: 72 h
Protocol: as §3

MFM-223 [23] = assay: as above; details: incubation time: 72 h
Protocol: as §3

MDA-MB-231 [24] = assay: as above; details: incubation time: 72 h
Protocol: as §3

BT-474 [25] = assay: as above; details: incubation time: 72 h
Protocol: as §3

HCC1143 [26] = assay: as above; details: incubation time: 72 h
Protocol: as §3

For `C[C@]12O[C@H](C[C@]1(O)CO)n1c3ccccc3c3c4c(c5c6ccccc6n2c5c31)CNC4=O` [Lestaurtinib], the “EC50, CellTiter-Blue viability” value (CAL-120 [1]) was 65.5 nM, the “EC50, CellTiter-Blue viability” value (HCC1143 [2]) was 151 nM and the “EC50, CellTiter-Glo” value (BT-549 [3]) was 130 nM. For the same compound, the “EC50, CellTiter-Glo” value (DU-4475 [4]) was 188 nM, the “EC50, CellTiter-Glo” value (MDA-MB-436 [5]) was 787 nM and the “EC50, CellTiter-Glo” value (Hs578T [6]) was 354 nM. The “EC50, CellTiter-Glo” value (MDA-MB-468 [7]) was 25.2 nM, the “EC50, CellTiter-Glo” value (MCF-10A) was 215 nM and the “EC50, CellTiter-Glo” value (CAL-51 [8]) was over 1000 nM. The “EC50, CellTiter-Glo” value (CAL-120 [9]) was 45.1 nM, the “EC50, CellTiter-Glo” value (SK-BR-3 [10]) was 215 nM and the “EC50, CellTiter-Glo” value (MFM-223 [11]) was 263 nM. For the same compound, the “EC50, CellTiter-Glo” value (MDA-MB-231 [12]) was 188 nM, the “EC50, CellTiter-Glo” value (BT-474 [13]) was 151 nM and the “EC50, CellTiter-Glo” value (HCC1143 [14]) was 68.7 nM. The normalised viability (BT-549 [15]; 0.1 nM) was 120%, the normalised viability (DU-4475 [16]; 0.1 nM) was 110% and the normalised viability (MDA-MB-436 [17]; 0.1 nM) was 126%. For the same compound, the normalised viability (Hs578T [18]; 0.1 nM) was 118%, the normalised viability (MDA-MB-468 [19]; 0.1 nM) was 126% and the normalised viability (MDA-MB-453; 0.1 nM) was 113%. The normalised viability (CAL-85-1; 0.1 nM) was 100%, the normalised viability (CAL-51 [20]; 0.1 nM) was 115% and the normalised viability (CAL-120 [21]; 0.1 nM) was 101%. For the same compound, the normalised viability (HCC1599; 0.1 nM) was 109%, the normalised viability (SK-BR-3 [22]; 0.1 nM) was 97.7% and the normalised viability (HCC1937; 0.1 nM) was 96.4%. The normalised viability (HDQ-P1; 0.1 nM) was 113%, the normalised viability (CAL-148; 0.1 nM) was 118% and the normalised viability (MFM-223 [23]; 0.1 nM) was 107%. The normalised viability (MDA-MB-231 [24]; 0.1 nM) was 115%, the normalised viability (BT-474 [25]; 0.1 nM) was 100% and the normalised viability (HCC1143 [26]; 0.1 nM) was 107%.

With `O=C1c2c(O)ccc(O)c2C(=O)c2c(NCCNCCO)ccc(NCCNCCO)c21` [Mitoxantrone] the “EC50, CellTiter-Blue viability” value (CAL-120 [1]) was 15.9 nM, the “EC50, CellTiter-Blue viability” value (HCC1143 [2]) was 11.8 nM and the “EC50, CellTiter-Glo” value (DU-4475 [4]) was 988 nM. The “EC50, CellTiter-Glo” value (MDA-MB-436 [5]) was 495 nM, the “EC50, CellTiter-Glo” value (CAL-51 [8]) was 975 nM and the “EC50, CellTiter-Glo” value (HCC1143 [14]) was 314 nM. For the same compound, the normalised viability (BT-549 [15]; 0.1 nM) was 90.5%, the normalised viability (DU-4475 [16]; 0.1 nM) was 102% and the normalised viability (MDA-MB-436 [17]; 0.1 nM) was 121%. The normalised viability (Hs578T [18]; 0.1 nM) was 93.6%, the normalised viability (MDA-MB-468 [19]; 0.1 nM) was 90.7% and the normalised viability (MDA-MB-453; 0.1 nM) was 90.6%. For the same compound, the normalised viability (CAL-85-1; 0.1 nM) was 80.5%, the normalised viability (CAL-51 [20]; 0.1 nM) was 109% and the normalised viability (CAL-120 [21]; 0.1 nM) was 74.6%. For the same compound, the normalised viability (HCC1599; 0.1 nM) was 92.1%, the normalised viability (SK-BR-3 [22]; 0.1 nM) was 108% and the normalised viability (HCC1937; 0.1 nM) was 92.5%. For the same compound, the normalised viability (HDQ-P1; 0.1 nM) was 101%, the normalised viability (CAL-148; 0.1 nM) was 108% and the normalised viability (MFM-223 [23]; 0.1 nM) was 84.2%. For the same compound, the normalised viability (MDA-MB-231 [24]; 0.1 nM) was 87.4%, the normalised viability (BT-474 [25]; 0.1 nM) was 75.9% and the normalised viability (HCC1143 [26]; 0.1 nM) was 79.2%.

For `Nc1ccccc1NC(=O)c1ccc(CNc2nccc(-c3cccnc3)n2)cc1` [Mocetinostat], the “EC50, CellTiter-Blue viability” value (CAL-120 [1]) was 75.7 nM, the “EC50, CellTiter-Blue viability” value (HCC1143 [2]) was 1770 nM and the “EC50, CellTiter-Glo” value (BT-549 [3]) was 1060 nM. The “EC50, CellTiter-Glo” value (DU-4475 [4]) was 1570 nM, the “EC50, CellTiter-Glo” value (MDA-MB-436 [5]) was 4130 nM and the “EC50, CellTiter-Glo” value (Hs578T [6]) was 3430 nM. The “EC50, CellTiter-Glo” value (MDA-MB-468 [7]) was 1840 nM, the “EC50, CellTiter-Glo” value (MCF-10A) was 5300 nM and the “EC50, CellTiter-Glo” value (CAL-51 [8]) was 1650 nM. The “EC50, CellTiter-Glo” value (CAL-120 [9]) was 1600 nM, the “EC50, CellTiter-Glo” value (SK-BR-3 [10]) was 1660 nM and the “EC50, CellTiter-Glo” value (MFM-223 [11]) was 4850 nM. For the same compound, the “EC50, CellTiter-Glo” value (MDA-MB-231 [12]) was 2720 nM, the “EC50, CellTiter-Glo” value (BT-474 [13]) was 2920 nM and the “EC50, CellTiter-Glo” value (HCC1143 [14]) was 2250 nM. It also gave a normalised viability (BT-549 [15]; 1 nM) of 117%, a normalised viability (DU-4475 [16]; 1 nM) of 91.3% and a normalised viability (MDA-MB-436 [17]; 1 nM) of 99.2%. The normalised viability (Hs578T [18]; 1 nM) was 113%, the normalised viability (MDA-MB-468 [19]; 1 nM) was 92% and the normalised viability (MDA-MB-453; 1 nM) was 92.5%. The normalised viability (CAL-85-1; 1 nM) was 91.8%, the normalised viability (CAL-51 [20]; 1 nM) was 93.6% and the normalised viability (CAL-120 [21]; 1 nM) was 81.7%. The normalised viability (HCC1599; 1 nM) was 92.2%, the normalised viability (SK-BR-3 [22]; 1 nM) was 93% and the normalised viability (HCC1937; 1 nM) was 90.8%. It also gave a normalised viability (HDQ-P1; 1 nM) of 84.2%, a normalised viability (CAL-148; 1 nM) of 107% and a normalised viability (MFM-223 [23]; 1 nM) of 91.2%. It also gave a normalised viability (MDA-MB-231 [24]; 1 nM) of 110%, a normalised viability (BT-474 [25]; 1 nM) of 107% and a normalised viability (HCC1143 [26]; 1 nM) of 91.1%.

In the case of `CC[C@@]1(O)C(=O)OCc2c1cc1n(c2=O)Cc2cc3c(CN(C)C)c(O)ccc3nc2-1` [Topotecan], the “EC50, CellTiter-Blue viability” value (CAL-120 [1]) is reported as 79.9 nM, the “EC50, CellTiter-Blue viability” value (HCC1143 [2]) is reported as 652 nM and the “EC50, CellTiter-Glo” value (BT-549 [3]) is reported as 1190 nM. The “EC50, CellTiter-Glo” value (DU-4475 [4]) was 496 nM, the “EC50, CellTiter-Glo” value (MDA-MB-436 [5]) was 378 nM and the “EC50, CellTiter-Glo” value (Hs578T [6]) was 5130 nM. For the same compound, the “EC50, CellTiter-Glo” value (MDA-MB-468 [7]) was 141 nM, the “EC50, CellTiter-Glo” value (MCF-10A) was 5600 nM and the “EC50, CellTiter-Glo” value (CAL-51 [8]) was 785 nM. The “EC50, CellTiter-Glo” value (CAL-120 [9]) was 4820 nM, the “EC50, CellTiter-Glo” value (SK-BR-3 [10]) was 574 nM and the “EC50, CellTiter-Glo” value (MDA-MB-231 [12]) was 7050 nM. For the same compound, the “EC50, CellTiter-Glo” value (BT-474 [13]) was 9160 nM, the “EC50, CellTiter-Glo” value (HCC1143 [14]) was 768 nM and the normalised viability (BT-549 [15]; 0.1 nM) was 96.1%. For the same compound, the normalised viability (DU-4475 [16]; 0.1 nM) was 102%, the normalised viability (MDA-MB-436 [17]; 0.1 nM) was 99.9% and the normalised viability (Hs578T [18]; 0.1 nM) was 110%. For the same compound, the normalised viability (MDA-MB-468 [19]; 0.1 nM) was 107%, the normalised viability (MDA-MB-453; 0.1 nM) was 110% and the normalised viability (CAL-85-1; 0.1 nM) was 85.5%. For the same compound, the normalised viability (CAL-51 [20]; 0.1 nM) was 92.5%, the normalised viability (CAL-120 [21]; 0.1 nM) was 85.9% and the normalised viability (HCC1599; 0.1 nM) was 90.8%. For the same compound, the normalised viability (SK-BR-3 [22]; 0.1 nM) was 92.4%, the normalised viability (HCC1937; 0.1 nM) was 81.5% and the normalised viability (HDQ-P1; 0.1 nM) was 115%. The normalised viability (CAL-148; 0.1 nM) was 103%, the normalised viability (MFM-223 [23]; 0.1 nM) was 100% and the normalised viability (MDA-MB-231 [24]; 0.1 nM) was 98.6%. It also gave a normalised viability (BT-474 [25]; 0.1 nM) of 111% and a normalised viability (HCC1143 [26]; 0.1 nM) of 98.3%.
